Assay [1] has as its system KYSE180 oesophageal cancer cell line. Briefly: MTT assay for cell viability, IC50 determination. The class given is cell-based. Particulars: Homo sapiens, KYSE-180, 48 hours. As for the experimental part: (§1) Cells were plated in 96-well plates and treated with varying concentrations of a test compound for 48 hours, after which MTT dye, 3-(4,5-dimethylthiazol-2-yl)-2,5-diphenyltetrazolium bromide (Sigma), was added, and crystals solubilised 4 hours later using Solubilisation Reagent (10% SLS in 0.01 M HCl). Absorbencies were measured at 595 nm the following day using a BioTek microplate spectrophotometer (Winooski, Vt., USA) and IC50 curves were generated using GraphPad Prism.

In assay [2] the test system is CaSki cervical cancer cell line. As to the kind of experiment: MTT assay for cell viability, IC50 determination. It counts as cell-based. The protocol:
as §1
For orientation: Formazan colour is commonly taken as a measure of viable cells.

The test system of assay [3] is HeLa cervical cancer cell line. Briefly: MTT assay for cell viability, IC50 determination. It counts as cell-based. Particulars: for IC50: Homo sapiens, HeLa. The protocol:
as §1

In assay [4] the test system is WHCO5 oesophageal cancer cell line. As to the kind of experiment: MTT assay for cell viability, IC50 determination. The class given is cell-based, human. Particulars: Homo sapiens. The protocol: as §1
Assay [5] concerns NFAT transcriptional activity in NFAT-transfected HeLa cells. As to the kind of experiment: NFAT luciferase reporter assay. It counts as cell-based. Particulars: stimulated with TPA and ionomycin (FIGS. 16-20). The protocol: To assay for NFAT luciferase activity, 30 000 HeLa cells were plated per well in 24-well plates, and transfected with 50 ng GFP-NFAT plasmid (Addgene plasmid #24219, gift of Jerry Crabtree (Beals C R, Clipstone N A, Ho S N, Crabtree G R. Nuclear localization of NF-ATc by a calcineurin-dependent, cyclosporin-sensitive intramolecular interaction. Genes Dev 1997 Apr. 1; 11(7):824-34)), 50 ng NFAT-luciferase (Addgene plasmid #10959, gift of Toren Finkel (Ichida M, Finkel T. Ras regulates NFAT3 activity in cardiac myocytes. J Biol Chem 2001 Feb. 2; 276(5):3524-30)), and 5 ng pRL-TK, using 0.4 μl Genecellin™ Transfection Reagent (Celtic Molecular Diagnostics, South Africa). The NFAT-luciferase reporter plasmid contains three tandem repeats of a 30 bp fragment of the IL-2 promoter known to bind NFAT. The following day cells were treated with 10 or 15 μM Compound A and after an overnight incubation, stimulated with 100 nM TPA (Sigma) and 1.3 μM Ionomycin (Santa Cruz Biotechnology, Santa Cruz, Calif., USA) for 5 hours, following which luciferase activity was measured.
An assay for nuclear NFAT following ionomycin and Compound A treatment was carried out, using an NFAT-luciferase reporter that is activated by nuclear NFAT. The phorbol ester TPA was used to co-stimulate NFAT, as it has been shown previously that TPA and ionomycin elicit synergistic stimulation of NFAT luciferase activity (Northrop J P, Ullman K S, Crabtree G R. Characterization of the nuclear and cytoplasmic components of the lymphoid-specific nuclear factor of activated T cells (NF-AT) complex. J Biol Chem 1993 Feb. 5; 268(4):2917-23).
(A reporter such as luciferase makes a cellular process visible.)

The subject of assay [6] is DMB normal skin fibroblasts (non-cancer). Briefly: MTT assay for cell viability, IC50 determination. The class given is cell-based. Particulars: Skin fibroblast. The protocol:
as §1

For assay [7], the system named is WI38 non-cancer cell line. Briefly: MTT assay for cell viability, IC50 determination. The class given is cell-based. Particulars: Homo sapiens, WI-38. The protocol:
as §1

Assay [8] concerns SVWI38 transformed cell line. Briefly: MTT assay for cell viability, IC50 determination. It counts as cell-based. As for the experimental part: as §1
For assay [9], the system named is KYSE150 oesophageal cancer cell line. As to the kind of experiment: MTT assay for cell viability, IC50 determination. It counts as cell-based. Particulars: Homo sapiens, KYSE-150. As for the experimental part: as §1
Assay [10] has as its system MCF7 breast cancer cell line. As to the kind of experiment: MTT assay for cell viability, IC50 determination. The class given is cell-based. Particulars: Homo sapiens. The protocol: as §1
Assay [11] in a line: MTT assay for cell viability, IC50 determination. The class given is cell-based. Particulars: Homo sapiens, MCF-12A, MCF12A. As for the experimental part: as §1
Assay [12] deals with MDA-MB-231 breast cancer cell line. As to the kind of experiment: MTT assay for cell viability, IC50 determination. It counts as cell-based. Particulars: Homo sapiens. The protocol:
as §1

Assay [13] has as its system cancer cell lines. Briefly: MTT cell viability, summary statements over panels of cancer cell lines. The class given is cell-based. Particulars: CaSki, HeLa, WHCO5, KYSE150, MCF12A, MCF7, MDA-MB-231, SVW138 (Table 4); read-out: IC50 values. The protocol:
as §1

The mark [14] stands for this setting: Homo sapiens, Ca-Ski, 48 h, MTT, read-out: IC50.
[15] abbreviates: 48 h, 48 hours, MTT, read-out: IC50.

Here are results for 23 compounds from patent US10220033B2, “Substituted benzoxazepine for cancer therapy” (University of Cape Town, priority 2014, dated 2019).

Like-named read-outs stand apart in the source and are kept apart here.

With `Nc1c(-c2nc3ccccc3[nH]2)c2nc3ccccc3nc2n1CCCO` [Compound H], the IC50 came out at 1.18 µM in [1]; 10 µM in [2] (setting [14]); 4.04 µM in assay [3] (setting [15]); 6.3 µM in assay [4] (48 h, MTT).

As to Ivermectin [reference compound], the “NFAT activation (NFAT-luciferase reporter)” value in [5] was “significantly diminished”.

In the case of `Cc1ccc2c(c1)c1c(n2C[C@@H](O)CNC[C@@H]2CCCO2)CCCC1` [XIV, (2S)-1-(6-methyl-1,2,3,4-tetrahydrocarbazol-9-yl)-3-[[(2S)-tetrahydrofuran-2-yl]methylamino]propan-2-ol], in [2] (setting [14]), the IC50 worked out at 31.7 µM.

`CC(C)Cn1c(N)c(-c2nc3ccccc3[nH]2)c2nc3ccccc3nc21` [Compound F]: the IC50 in assay [1] was 5.35 µM; in [2] (setting [14]), 7.55 µM; in assay [3] (setting [15]) it was 6.77 µM; in assay [4] (48 h, MTT), 6.59 µM.

Regarding `CC(C)CCn1c(N)c(-c2nc3ccccc3[nH]2)c2nc3ccccc3nc21` [Compound G], the IC50 in assay [1] is 5.51 µM; in assay [2] (setting [14]), 6.17 µM; in assay [3] (setting [15]), 6.38 µM; in assay [4] (48 h, MTT), 6.14 µM.

Consider `Cc1ccc2cc(CNCCCN3C[C@@H]4C=C[C@H]3C4)c(N3CCC(O)CC3)nc2c1` (stereo in doubt) [VIII, 1-[3-[[3-[(1S,4R)-5-azabicyclo[2.2.1]hept-2-en-5-yl]propylamino]methyl]-7-methyl-2-quinolyl]piperidin4-ol], for which, in assay [2] (setting [14]), the IC50 was 24.4 µM.

As for `Nc1c(-c2nc3ccccc3[nH]2)c2nc3ccccc3nc2n1CCCn1ccnc1` [Compound C], the IC50 is 8.46 µM in assay [1]; 9.49 µM in [2] (setting [14]); 7.19 µM in assay [3] (setting [15]); 8.32 µM in [4] (48 h, MTT).

For `CCN(CC)CCCn1c(N)c(-c2nc3ccccc3[nH]2)c2nc3ccccc3nc21` [Compound B], the IC50 in [1] is 6.03 µM; in assay [2] (setting [14]), 5.59 µM; in [3] (setting [15]), 6.36 µM; in assay [4] (48 h, MTT) it was 5.7 µM.

Turning to `CCOC(=O)c1cc2c(=O)n3cc(C)ccc3nc2[n+](CCCN2CCOCC2)c1N` [V, ethyl 2-imino-8-methyl-1-[3-(4-morpholinyl)propyl]-5-oxo-1,5-dihydro-2H-dipyrido[1,2-a:2′,3′-d]pyrimidine-3-carboxylate], in assay [2] (setting [14]), the IC50 came to 16.4 µM.

Turning to `CN1CCc2cc(CNC3CCN(c4ccc(C(=O)NC5CCCC5)cc4)CC3)ccc21` [XVI, N-cyclopentyl-4-[4-[(1-methylindolin-5-yl)methylamino]-1-piperidyl]benzamide], in assay [2] (setting [14]), the IC50 is 46.8 µM.

With `Cc1csc2nc(CNCc3cc4cc5c(cc4n(CCN4CCCCC4)c3=O)CCC5)cn12` [Compound XI, 3-[[(3-methylimidazo[2,1-b]thiazol-6-yl)methylamino]methyl]-1-[2-(1-piperidyl)ethyl]-7,8-dihydro-6H-cyclopenta[g]quinolin-2-one], the IC50 came out at 31.2 µM in [6] (DMB, compound in salt form); 35 µM in [7] (WI38, compound in salt form); 41.1 µM in assay [8] (SVWI38, compound in salt form); 26.9 µM in [2] (setting [14]); 26.9 µM in assay [2] (Homo sapiens, Ca-Ski, compound in salt form, read-out: IC50); 40.1 µM in [9] (Kyse150, compound in salt form). In addition, the IC50 in assay [10] (compound in salt form) stood at 95 µM; in assay [11] (compound in salt form), 61.8 µM; in assay [3] (compound in salt form, read-out: IC50) it was 33.1 µM; in [12] (compound in salt form), 32.7 µM; in assay [4] (compound in salt form), 17 µM.

In the case of `CCn1c(N)c(-c2nc3ccccc3[nH]2)c2nc3ccccc3nc21` [Compound K], the IC50 in assay [1] came out at 7.23 µM; in [2] (setting [14]) it was 6.62 µM; in assay [3] (setting [15]), 4.16 µM; in assay [4] (48 h, MTT) it was 6.79 µM.

As for `c1ccc2[nH]cnc2c1` [Benzimidazole, benzimidazole, reference compound], the IC50 in assay [3] (HeLa cells (FIG. 3B), read-out: IC50 concentration (cell-killing effect)) amounted to 2080 µM.

On to `CCCn1c(N)c(-c2nc3ccccc3n2C)c2nc3ccccc3nc21` [Compound J], for which the IC50 was 33.1 µM in assay [1]; 38.4 µM in [2] (setting [14]); 22.2 µM in assay [3] (setting [15]); 11.8 µM in assay [4] (48 h, MTT).

Regarding `COc1cc2ncnc(Nc3cccc(Cl)c3)c2cc1OC` [AG 1478, reference compound], the “NFAT activation (NFAT-luciferase reporter)” value in assay [5] is “no change”.

For the compound `c1ccc2nccnc2c1` [quinoxaline, reference compound], the cell-killing effect entry in [3] (HeLa cells, concentration range of up to 6.5 mM (FIG. 3A)) was “No cell-killing effect was observed”.

For the compound `CCCCn1c(N)c(-c2nc3ccccc3[nH]2)c2nc3ccccc3nc21` [Compound E], the IC50 in assay [1] turned out to be 8.79 µM; in [2] (setting [14]) it was 14.3 µM; in assay [3] (setting [15]) it was 8.29 µM; in assay [4] (48 h, MTT) it was 5.94 µM.

As to `CCCn1c(N)c(-c2nc3ccccc3[nH]2)c2nc3ccccc3nc21` [Compound D], the IC50 is 14.8 µM in assay [1]; 12.2 µM in [2] (setting [14]); 8.38 µM in assay [3] (setting [15]); 12.2 µM in [4] (48 h, MTT).

`Cc1ccc(OC[C@@H](O)CN2CCN(CCO)CC2)cc1C` [VII, (2S)-1-(3,4-dimethylphenoxy)-3-[4-(2-hydroxyethyl)piperazin-1-yl]propan-2-ol]: the IC50 in assay [2] (setting [14]) is 22.2 µM.

Consider `COc1ccc(C)cc1NC(=O)[C@@H](NCc1nc2ccccc2n1C)c1ccccc1` [VI, (2S)-N-(2-methoxy-5-methyl-phenyl)-2-[(1-methylbenzimidazol-2-yl)methylamino]-2-phenyl-acetamide], for which, in assay [2] (setting [14]), the IC50 was 19.1 µM.

Consider `Cn1c(-c2c(N)n(CCCN3CCOCC3)c3nc4ccccc4nc23)nc2ccccc21` [Compound I], for which the IC50 is 22 µM in [1]; “Does not converge” in assay [2] (48 hours, MTT); 15.4 µM in assay [3] (setting [15]); 19.6 µM in [4] (48 h, MTT).

As to `Clc1ccccc1COc1nc2cc3c(cc2cc1CNCc1cn2c(n1)SCC2)CCC3` [Compound IV, ({2-[(2-chlorophenyl)methoxy]-6H,7H,8H-cyclopenta[g]quinolin-3-yl}methyl)({2H,3H-imidazo[2,1-b][1,3]thiazol-6-ylmethyl})amine], the IC50 was 8 to 18 µM in [13]; 8.27 µM in assay [6] (DMB non-cancer, 48 hours, MTT); 25.1 µM in [7] (WI38 non-cancer, 48 hours, MTT); 12.9 µM in assay [8] (SVWI38 transformed, 48 hours, MTT); 8.69 µM in [2] (setting [14]); 11.2 µM in assay [9] (KYSE150, 48 hours, MTT). Besides, the IC50 in [10] (48 hours, MTT) amounted to 14 µM; in assay [11] (48 hours, MTT), 11.4 µM; in [3] (setting [15]), 8.62 µM; in assay [12] (48 hours, MTT), 8.01 µM; in [4] (48 h, MTT), 17.9 µM.

As for `OCCCNCc1cc2cc3c(cc2nc1N1CCN(c2cccc(Cl)c2)CC1)OCO3` [XV, 3-[[6-[4-(3-chlorophenyl)piperazin-1-yl]-[1,3]dioxolo[4,5-g]quinolin-7-yl]methylamino]propan-1-ol], the IC50 in assay [2] (setting [14]) amounted to 37.7 µM.
